Measured values: PubChem BioAssay (NCI)
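Grown in 96-well plates, cells were treated for 48 hours with each compound at five concentrations. Insufficient inhibition: endpoint recorded as highest concentration tested. Definition used: TGI = concentration required for complete inhibition of growth.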

What was measured:
Test in all cases: inhibition of tumour cell growth, NCI panel, 48 h
[1] = test system: OVCAR-3 ovarian
[2] = test system: EKVX NSCLC
[3] = test system: CAKI-1 renal
[4] = test system: BT-549 breast
[5] = test system: SK-MEL-28 melanoma
[6] = test system: SF-295 CNS
[7] = test system: SNB-75 CNS
[8] = test system: SK-OV-3 ovarian
[9] = test system: CCRF-CEM leukemia
[10] = test system: SN12C renal
[11] = test system: T-47D breast
[12] = test system: IGROV1 ovarian
[13] = test system: OVCAR-4 ovarian
[14] = test system: UO-31 renal
[15] = test system: DU-145 prostate
[16] = test system: UACC-257 melanoma
[17] = test system: NCI-H460 lung
[18] = test system: HCT-116 colon
[19] = test system: SF-539 CNS
[20] = test system: MALME-3M melanoma

Row | Structure (SMILES) | TGI [1] | TGI [2] | TGI [3] | TGI [4] | TGI [5] | TGI [6] | TGI [7] | TGI [8] | TGI [9] | TGI [10] | TGI [11] | TGI [12] | TGI [13] | TGI [14] | TGI [15] | TGI [16] | TGI [17] | TGI [18] | TGI [19] | TGI [20]
1 | Cc1cc(C)nc(NS(=O)(=O)c2ccc(Nc3c4ccccc4nc4c(C(=O)NC(CO)(CO)CO)cccc34)cc2)n1 | > 100 µM | > 100 µM | > 100 µM | 44.2 µM | 62.5 µM | > 100 µM | 55.2 µM | > 100 µM | 58.9 µM | > 100 µM | > 100 µM | > 100 µM | > 100 µM | > 100 µM | > 100 µM | > 100 µM | 35.3 µM | – | – | –
2 | CC(NCc1c(O)ccc2ccc(=O)oc12)C(=O)O (stereo not drawn) | > 100 µM | > 100 µM | > 100 µM | – | > 100 µM | > 100 µM | > 100 µM | > 100 µM | > 100 µM | > 100 µM | > 100 µM | > 100 µM | > 100 µM | > 100 µM | > 100 µM | > 100 µM | > 100 µM | > 100 µM | > 100 µM | > 100 µM
3 | COc1ccc2nc3c([N+](=O)[O-])ccc4c3c(c2c1)NCCN4CCN(C)C | 2.4 µM | 2.78 µM | 7.35 µM | 3.39 µM | 3.08 µM | 1.69 µM | 1.57 µM | 0.973 µM | 4 µM | 3.28 µM | – | 3.15 µM | 0.697 µM | 3.42 µM | 4.91 µM | 4.58 µM | 1.46 µM | 1.3 µM | 1.71 µM | 1.56 µM
4 | Cc1cc(=O)oc2c(CNC(CO)C(=O)O)c(O)ccc12 (stereo not drawn) | > 100 µM | > 100 µM | > 100 µM | – | > 100 µM | > 100 µM | > 100 µM | > 100 µM | > 100 µM | > 100 µM | > 100 µM | > 100 µM | > 100 µM | > 100 µM | > 100 µM | > 100 µM | > 100 µM | > 100 µM | > 100 µM | > 100 µM
5 | c1cc2nnsc2s1 | – | > 100 µM | > 100 µM | – | > 100 µM | > 100 µM | > 100 µM | > 100 µM | > 100 µM | > 100 µM | – | > 100 µM | > 100 µM | > 100 µM | – | > 100 µM | > 100 µM | – | > 100 µM | > 100 µM
6 | CC(=O)Nc1ccc(-c2nnc(SCC(=O)Nc3cccc(Cl)c3)o2)cc1 | 22.1 µM | 45 µM | 33.2 µM | – | 33.8 µM | 33.6 µM | 71.9 µM | > 100 µM | > 100 µM | 31.6 µM | – | 32.5 µM | 42.3 µM | 76.9 µM | – | 43.6 µM | 51.2 µM | 25.5 µM | 34.8 µM | 26.8 µM
7 | O=C(NCCC1CN(C(=O)OCc2ccccc2)c2ccccc21)OCc1ccccc1 (stereo not drawn) | > 100 µM | > 100 µM | > 100 µM | > 100 µM | > 100 µM | > 100 µM | > 100 µM | > 100 µM | – | – | – | > 100 µM | > 100 µM | > 100 µM | > 100 µM | > 100 µM | > 100 µM | > 100 µM | – | > 100 µM
8 | CC(c1ccc2c(c1)CCC1C2CC2OC23CC=CC(=O)[C@]13C)C1C[C@]2(C)O[C@]2(C)[C@H](O)O1 (stereo partly drawn) | > 100 µM | > 100 µM | 81.3 µM | – | > 100 µM | – | > 100 µM | > 100 µM | > 100 µM | > 100 µM | – | > 100 µM | – | > 100 µM | – | 56.8 µM | > 100 µM | > 100 µM | > 100 µM | > 100 µM
9 | CCOC(=O)CC[C@H](NC(=O)N[C@H](C)c1ccccc1)C(=O)OCC | 41.5 µM | > 100 µM | > 100 µM | > 100 µM | 43.8 µM | > 100 µM | – | > 100 µM | 54.2 µM | > 100 µM | – | > 100 µM | > 100 µM | > 100 µM | > 100 µM | 46.6 µM | > 100 µM | > 100 µM | 45.5 µM | –
10 | CC(C)(C)C1CCC2c3c([nH]c4ccccc34)C3C(=O)N(c4ccccc4Cl)C(=O)C3C2C1 (stereo not drawn) | 47.3 µM | 31.5 µM | 37.1 µM | 61.6 µM | – | 57.2 µM | – | > 100 µM | > 100 µM | 22.7 µM | – | > 100 µM | – | 78.1 µM | 42.7 µM | > 100 µM | 15.8 µM | 14.3 µM | – | 37.1 µM
11 | COc1ccc(N2C(=O)C3c4[nH]c5ccccc5c4C4CC(C)(C)CC(C)(C)C4C3C2=O)cc1 (stereo not drawn) | – | 38.2 µM | – | – | 27.7 µM | 21.4 µM | 34.5 µM | 38.2 µM | > 100 µM | 33.2 µM | – | 65.5 µM | 26.2 µM | > 100 µM | – | 46.1 µM | – | 30.4 µM | 27.2 µM | 36.3 µM
12 | CC(C)(C)C1CCC2c3c([nH]c4ccccc34)C3C(=O)N(c4ccccc4[N+](=O)[O-])C(=O)C3C2C1 (stereo not drawn) | 28.6 µM | 44.7 µM | 32.4 µM | 68.5 µM | – | 31.2 µM | – | > 100 µM | 53.1 µM | 64.3 µM | – | 76 µM | – | > 100 µM | 22.4 µM | 90.6 µM | 27.6 µM | 22.7 µM | 61.3 µM | 43 µM
13 | O=C(Cc1ccccc1)NN1C(=O)/C(=C\c2cccc([N+](=O)[O-])c2)SC1=Nc1ccccc1 | > 100 µM | > 100 µM | – | – | > 100 µM | > 100 µM | > 100 µM | > 100 µM | – | > 100 µM | > 100 µM | > 100 µM | > 100 µM | > 100 µM | > 100 µM | > 100 µM | > 100 µM | > 100 µM | > 100 µM | –
14 | COc1ccccc1C(=O)NO | > 100 µM | > 100 µM | > 100 µM | > 100 µM | > 100 µM | > 100 µM | > 100 µM | > 100 µM | > 100 µM | > 100 µM | > 100 µM | > 100 µM | > 100 µM | > 100 µM | > 100 µM | > 100 µM | > 100 µM | > 100 µM | – | –
